Values quoted from earlier work, collected in patent US9044449B2, “X-ray contrast media compositions and methods of using the same to treat, reduce or delay the onset of CNS inflammation and inflammation associated conditions” (3E THERAPEUTICS CORPORATION, priority 2011, dated 2015).
Residues, ends and D or L forms follow the SMILES beside them.

Experiments:
[1] = system: TNF-alpha; settings: in vitro
[2] = target: angiotensin converting enzyme (ACE) (Homo sapiens, UniProt P12821); settings: in vitro; FIG. 2 reproduced from Lasser et al. 1990
[3] = system: allergen induced nasal obstruction; settings: used as a nasal spray, in vivo
[4] = system: mast cell degranulation; settings: in vitro; immunological and non-immunological stimuli

Sequence of angiotensin converting enzyme (ACE) (P12821 30-1306, species assumed): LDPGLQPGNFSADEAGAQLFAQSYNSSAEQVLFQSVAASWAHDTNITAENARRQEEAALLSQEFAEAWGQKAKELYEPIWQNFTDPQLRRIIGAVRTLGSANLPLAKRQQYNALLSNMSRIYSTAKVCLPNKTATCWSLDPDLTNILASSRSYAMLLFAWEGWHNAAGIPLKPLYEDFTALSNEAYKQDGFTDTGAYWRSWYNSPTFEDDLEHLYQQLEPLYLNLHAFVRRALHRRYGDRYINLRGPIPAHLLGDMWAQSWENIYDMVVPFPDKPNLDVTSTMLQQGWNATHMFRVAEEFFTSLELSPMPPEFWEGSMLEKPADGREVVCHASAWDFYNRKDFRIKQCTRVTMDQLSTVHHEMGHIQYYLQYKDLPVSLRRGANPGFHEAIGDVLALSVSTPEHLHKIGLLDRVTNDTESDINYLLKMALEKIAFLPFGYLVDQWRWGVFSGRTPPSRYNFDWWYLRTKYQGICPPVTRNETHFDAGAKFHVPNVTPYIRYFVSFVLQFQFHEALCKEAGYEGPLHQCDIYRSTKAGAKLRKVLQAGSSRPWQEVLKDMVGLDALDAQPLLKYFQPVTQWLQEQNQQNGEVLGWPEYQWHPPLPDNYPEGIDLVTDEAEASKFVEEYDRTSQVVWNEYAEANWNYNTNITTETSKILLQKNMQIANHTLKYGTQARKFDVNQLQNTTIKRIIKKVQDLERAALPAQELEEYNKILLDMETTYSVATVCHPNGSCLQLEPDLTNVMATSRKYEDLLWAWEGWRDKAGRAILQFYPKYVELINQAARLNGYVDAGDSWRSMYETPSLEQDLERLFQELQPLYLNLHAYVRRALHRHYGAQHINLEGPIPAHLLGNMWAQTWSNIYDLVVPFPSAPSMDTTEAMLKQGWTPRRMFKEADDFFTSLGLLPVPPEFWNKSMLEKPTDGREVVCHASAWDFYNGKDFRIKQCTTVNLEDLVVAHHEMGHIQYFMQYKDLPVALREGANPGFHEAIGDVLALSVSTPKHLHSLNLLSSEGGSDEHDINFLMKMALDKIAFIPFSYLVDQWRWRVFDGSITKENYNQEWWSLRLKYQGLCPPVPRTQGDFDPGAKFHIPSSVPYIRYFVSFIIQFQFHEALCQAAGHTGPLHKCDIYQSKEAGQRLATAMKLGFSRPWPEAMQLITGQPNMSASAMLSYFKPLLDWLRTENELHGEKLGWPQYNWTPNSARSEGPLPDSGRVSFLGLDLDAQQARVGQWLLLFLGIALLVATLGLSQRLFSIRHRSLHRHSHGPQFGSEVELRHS

For `O=C(O)c1cc(=O)c2c(OCC(O)COc3cccc4oc(C(=O)O)cc(=O)c34)cccc2o1` [Sodium cromoglycate], the “inhibition of TNF-alpha” value [1] is given as “inhibited TNF-alpha in vitro”.
In the case of `C[C@H](O)C(=O)Nc1c(I)c(C(=O)NC(CO)CO)c(I)c(C(=O)NC(CO)CO)c1I` [purified iopamidol, iopamidol], the “inhibition of ACE compared with commercial iopamidol (contains chelator)” value [2] is given as “diminishes the inhibition ACE significantly”.
For `CCCc1c2oc(C(=O)[O-])cc(=O)c2cc2c(=O)cc(C(=O)[O-])n(CC)c12.[Na+].[Na+]` [nedocrimal sodium], the “inhibition of TNF-alpha” value [1] is listed as “inhibited TNF-alpha in vitro”.
In the case of `CC(=O)N[C@@H](CC(=O)[O-])C(=O)N[C@@H](CCC(=O)[O-])C(=O)O.[Mg+2]` [magnesium salt of n-acetyl aspartyl glutamic acid] (Ac-Asp-Glu-OH), the “effect on allergen induced nasal obstruction” value [3] is listed as “reduce allergen induced nasal obstruction” and the “inhibition of mast cell degranulation” value [4] is listed as “inhibit mast cell degranulation”.
